Assay results: US10076576B2, “Minimally toxic prodrugs” (priority 2012, dated 2018)
Where “and” joins values, the source holds several entries; their conditions need not be identical. Equal entries are not always repeated. Entries after “also recorded” stand apart in the source; their conditions may differ.

Experiments:
[1] = system: LoVo colon carcinoma human xenografts; assay: Efficacy after repeated ip injections (2Q1D5), LoVo xenograft; type: in vivo, NMRI nude mice; conditions: for TGD: 190 to 1,000 mm^3
Experimental: FIG. 9. Efficacy study of PhAc-ALGP-Dox in comparison with free Doxorubicin in NMRI nude mice bearing LoVo colon carcinoma human xenografts. Drugs or controls were administered by the i.p. route twice a day for five consecutive days (arrows). The mice receiving a constant volume (10 μL/g) of either saline (-●-) or of the different dosing solutions: PhAc-ALGP-Dox 25 μmol/kg (*), 35 μmol/kg (◯) and 50 μmol/kg (+); Dox 0.5 μmol/kg (▪), 1 μmol/kg (▴) and 2 μmol/kg (×).
(§1) The efficacy of PhAc-ALGP-Dox was assessed using athymic mice (nude/nude NMRI) carrying ectopic xenograft of human LoVo colon carcinoma or of MX-1 mammary carcinoma in comparison with free Doxorubicin. Tumors were established by a subcutaneous implantation of cells (10^7 cells) in the right flank of 6 weeks old female NMRI nude mice (Harlan). Treatments were administered when the tumors reached a size of 150-200 mm^3 (measured using a caliper and calculated with the following formula: […]). Animals were randomly assigned to groups of 4 to-6 animals. […] Compounds were delivered by bolus intraperitoneal injection (ip) at 10 μl/g. During the course of the experiment, clinical signs, body weight and tumor volume were controlled twice a week. Results are presented as the evolution of mean tumor volume as a function of time. Optimal T/C (ratio of mean tumor volume of treated versus control mice) values and TGD (tumor growth delay in reaching 1000 mm^3) were used as a measure of treatment efficacy. […] A statistical analysis was performed at day 22 using the Mann Whitney t test of the Graph Pad Prism 5.0 software.

[2] = system: LoVo colon carcinoma human xenografts; assay: Efficacy, similar study, ip 2Q1D5×2W (Table 9)
Experimental: as §1

[3] = mouse, in vivo, iv, 86.2 umol/kg
Experimental: Time evolution of plasma concentration (A, B) and of cardiac tissue concentration (C, D) of Doxorubicin or PhAc-ALGP-Dox and its metabolites after i.v. bolus injection to OF-1 female wild type mice at the dose of 86.2 μmol/kg. Results represent the mean concentration±SD (n=3).
Pharmacokinetic tissue distribution studies were performed using OF-1 mice. […] At different time points after drug administration (5 min, 30 min, 1 h, 4 h, 7 h, 16 h and 24 h) 3 mice per group were sacrificed by cervical dislocation and blood and heart tissue were collected. Hearts were incised and rinsed carefully in phosphate buffer saline (to eliminate blood in the cardiac cavities), dried on paper and frozen in liquid nitrogen. They were stored until analysis. Blood samples were centrifuged (10 min, 2000 g, 4° C.) to separate the plasma fraction, which was stored for analysis. The hearts were homogenized with an Ultraturrax homogenizer in 1.5 mL water. The protein concentration was measured using the microBCA protein assay (Pierce). The drug tissue quantification was made by HPLC after extraction: 150 μL of acetonitrile was added to the 50 μL samples. Samples were vortexed and centrifuged for 10 min at 13 000 rpm at room temperature. Supernatant was collected. Samples were buffered by addition of 200 mM formiate buffer pH 4.5 (1 V sample supernatant+3 V buffer) before HPLC analysis (fluo detection ex=235 nm em=560 nm).

[4] = target: T1, CD10 (recombinant human neprilysin) (Homo sapiens, UniProt P08473); assay: Reactivation assay with purified CD10; type: biochemical; conditions: 3 h at 37° C., 50 μM compound
T1 construct: purchased R&D systems 1182-ZN
T1 sequence (P08473 52-750 limits assumed): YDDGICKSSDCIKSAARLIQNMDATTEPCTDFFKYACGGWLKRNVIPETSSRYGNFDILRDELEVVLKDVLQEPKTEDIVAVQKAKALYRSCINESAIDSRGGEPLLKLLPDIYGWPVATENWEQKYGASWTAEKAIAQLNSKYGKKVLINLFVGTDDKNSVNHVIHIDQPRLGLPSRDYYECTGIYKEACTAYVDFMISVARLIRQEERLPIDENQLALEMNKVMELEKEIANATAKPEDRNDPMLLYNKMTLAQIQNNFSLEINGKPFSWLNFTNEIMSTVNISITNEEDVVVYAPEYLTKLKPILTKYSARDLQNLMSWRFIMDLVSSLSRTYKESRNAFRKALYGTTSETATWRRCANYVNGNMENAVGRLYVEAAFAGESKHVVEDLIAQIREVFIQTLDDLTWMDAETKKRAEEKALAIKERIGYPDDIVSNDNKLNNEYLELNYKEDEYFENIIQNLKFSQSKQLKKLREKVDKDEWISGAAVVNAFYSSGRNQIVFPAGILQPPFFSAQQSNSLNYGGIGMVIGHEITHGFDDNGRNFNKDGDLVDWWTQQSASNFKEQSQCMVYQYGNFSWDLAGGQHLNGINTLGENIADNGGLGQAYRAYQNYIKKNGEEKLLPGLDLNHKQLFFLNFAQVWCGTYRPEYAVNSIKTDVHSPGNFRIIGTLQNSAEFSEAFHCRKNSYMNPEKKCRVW

[5] = target: T2, TOP (recombinant human thimet oligopeptidase) (Homo sapiens, UniProt P52888); assay: Reactivation assay with purified TOP; type: biochemical; conditions: 3 h at 37° C., 50 μM compound
T2 construct: purchased R&D systems 3439-ZN
T2 sequence (P52888 whole entry): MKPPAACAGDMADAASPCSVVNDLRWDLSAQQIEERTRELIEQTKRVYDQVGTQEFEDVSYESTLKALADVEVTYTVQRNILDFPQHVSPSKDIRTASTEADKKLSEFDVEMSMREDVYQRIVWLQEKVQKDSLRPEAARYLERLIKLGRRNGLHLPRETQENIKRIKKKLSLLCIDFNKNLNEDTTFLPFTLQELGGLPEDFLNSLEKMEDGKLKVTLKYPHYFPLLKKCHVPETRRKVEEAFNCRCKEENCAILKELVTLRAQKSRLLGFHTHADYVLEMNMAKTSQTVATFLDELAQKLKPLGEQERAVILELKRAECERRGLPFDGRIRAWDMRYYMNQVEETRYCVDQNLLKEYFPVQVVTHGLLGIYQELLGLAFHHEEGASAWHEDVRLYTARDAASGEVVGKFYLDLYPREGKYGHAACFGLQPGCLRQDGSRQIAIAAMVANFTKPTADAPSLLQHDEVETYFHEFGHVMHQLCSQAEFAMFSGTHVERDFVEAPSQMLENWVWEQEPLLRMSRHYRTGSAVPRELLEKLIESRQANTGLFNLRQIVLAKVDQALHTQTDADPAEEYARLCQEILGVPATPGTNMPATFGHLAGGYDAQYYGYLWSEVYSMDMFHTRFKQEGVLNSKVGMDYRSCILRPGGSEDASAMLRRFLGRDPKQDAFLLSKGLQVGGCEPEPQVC
Experimental: (§2) TOP (recombinant human thimet oligopeptidase, R&D systems, Ref 3439-ZN) was diluted at 10 nM in a solution of 50 mM Tris-HCl pH 7.4/0.5M NaCl/0.1M DTT. CD26 and FAP were diluted at 1 μg/mL in a Tris-HCl pH 7.5 buffer. Reactions were initiated by addition of 50 μM of each compound to enzymes solutions (1 V enzyme solution+1 V 100 μM drug solution). Samples were incubated for 0, 1, or 3 hours at 37° C. in a water bath in the presence of purified enzymes. Fifty μL of sample were collected at each time point and processed as described above for human plasma. Activation of Suc-βALAL-dox was tested in parallel as a reference.

[6] = target: T3, FAP (Homo sapiens, UniProt Q12884); assay: Reactivation assay with purified FAP; type: biochemical
T3 sequence (Q12884 1-760): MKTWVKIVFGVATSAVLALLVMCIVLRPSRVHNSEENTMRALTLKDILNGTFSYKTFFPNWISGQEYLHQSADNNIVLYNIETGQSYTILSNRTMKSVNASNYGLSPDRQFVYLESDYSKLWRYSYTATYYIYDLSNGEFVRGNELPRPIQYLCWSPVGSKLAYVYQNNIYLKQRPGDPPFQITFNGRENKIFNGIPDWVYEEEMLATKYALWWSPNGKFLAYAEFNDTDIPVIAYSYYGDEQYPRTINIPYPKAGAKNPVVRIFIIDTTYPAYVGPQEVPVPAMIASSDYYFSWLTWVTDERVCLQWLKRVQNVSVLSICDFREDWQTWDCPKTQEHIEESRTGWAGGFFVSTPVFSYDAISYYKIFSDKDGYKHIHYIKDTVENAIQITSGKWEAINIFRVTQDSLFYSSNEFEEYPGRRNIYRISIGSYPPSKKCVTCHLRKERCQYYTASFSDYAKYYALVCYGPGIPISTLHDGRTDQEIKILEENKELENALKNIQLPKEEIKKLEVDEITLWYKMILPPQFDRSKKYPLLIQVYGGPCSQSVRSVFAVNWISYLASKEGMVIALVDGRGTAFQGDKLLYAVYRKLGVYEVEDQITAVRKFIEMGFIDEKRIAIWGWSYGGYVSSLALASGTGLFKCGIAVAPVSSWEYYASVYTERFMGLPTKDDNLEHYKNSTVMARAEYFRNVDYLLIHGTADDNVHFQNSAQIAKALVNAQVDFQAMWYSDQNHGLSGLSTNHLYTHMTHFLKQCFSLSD
Experimental: as §2

[7] = In vivo toxicity after single iv bolus injection (body weight); parameters: species or system OF-1 mice
Experimental: FIG. 1. Effect of PhAc-peptide-Dox conjugates on the body weight of OF-1 normal mice (n=4). […] Results represent the mean body weight evolution.
The in vivo toxicity was evaluated by monitoring body weight.

[8] = In vitro cytotoxicity on Cor.At cardiomyocytes (neutral red uptake); type: cell-based, mouse; conditions: mouse, 20 μg/ml
Experimental: (§3) FIG. 5. In vitro cellular toxicity of PhAc-ALGP-Dox and Doxorubicin on Cor.At® cells (mouse embryonic stem cell derived cardiomyocytes). As non-specific control, the test was also performed on inactivated mouse embryonic fibroblasts (MEF). Cells were cultured for 48 h in the presence of drugs and a neutral red uptake test was performed to determine cell viability. Results represent the cytotoxicity curves. The IC50 values were calculated from the cytotoxicity curves using the Prism GraphPad software 5.0.
(§4) The in vitro cardiotoxicity test was carried out in a relevant and predictive in vitro model for cardiac safety screening in early lead optimization using mouse embryonic stem cell derived cardiomyocytes (Cor.At®, Axiogenesis (Germany)). Cor.At® cardiomyocytes provide a standardized, homogenous and reproducible cell system for the in vitro classification of a compound's cardio-cytotoxic potential. After incubation with test compounds, the neutral red uptake test was used to determine effects which directly affect the viability and integrity of cardiac cells when compared to a non-specific reference cell type, e.g. mouse fibroblasts (MEF).

[9] = In vitro cytotoxicity on control fibroblasts (neutral red uptake); type: cell-based, mouse; conditions: mouse, inactivated mouse embryonic fibroblasts (MEF), 20 μg/ml
Experimental: as §3, §4

SMILES: COc1cccc2c1C(=O)c1c(O)c3c(c(O)c1C2=O)C[C@@](O)(C(=O)CO)C[C@@H]3O[C@H]1C[C@H](N)[C@H](O)[C@H](C)O1 [Doxorubicin, reference compound]
- TGD ([1]; 0.5 μmol/kg ip 2Q1D5): 1 days
- TGI [% (day)] ([1]; 1 μmol/kg ip 2Q1D5): no antitumor activity and no
- TGD ([1]; 1 μmol/kg ip 2Q1D5): 0 days
- TGD ([1]; 2 μmol/kg ip 2Q1D5): 6 days
- TGI [% (day)] ([1]; 2 μmol/kg ip 2Q1D5, day 22, listed as Dox): 45%
- TGD ([2]; 1 μmol/kg ip 2Q1D5×2W): 5 days
- mortality ([2]; 1 μmol/kg ip 2Q1D5×2W): one dead mouse was found at day 29
- TGI [% (day)] ([2]; 1 μmol/kg ip 2Q1D5×2W, day 29): 44(29), %
- TGD ([2]; 1.5 μmol/kg ip 2Q1D5×2W): 9 days
- TGI [% (day)] ([2]; 1.5 μmol/kg ip 2Q1D5×2W, day 29, n = 1): 65(29), %
- Heart AUC of Dox [3]: 5863 pmol · h/mg protein

SMILES: COc1cccc2c1C(=O)c1c(O)c3c(c(O)c1C2=O)CC(O)(C(=O)CO)CC3OC1CC(NC(=O)C2CCCN2C(=O)CNC(=O)C(CC(C)C)NC(=O)C(C)NC(=O)CP(=O)(O)O)C(O)C(C)O1 (centres unmarked) [PhAc-ALGP-Dox, PhAc-ALGP-doxorubicin]
- % Metabolites released after 3 h (CD10 10 nM) [4]: 25% and 25 ± 4%
- % Metabolites released after 3 h (TOP 5 nM) [5]: 72% and 72 ± 14%
- hydrolysis by FAP (in words) [6]: Neither CD26 nor FAP hydrolized; also recorded: did not hydrolyze
- maximum body weight loss ([7]; 240 μmol/kg single iv, day 28): 15%
- body weight loss (in words) ([7]; 320 μmol/kg single iv): significant body weight loss
- mortality ([7]; 320 μmol/kg single iv): one mouse was found dead at day 12
- tolerability (in words) ([7]; 240 and 320 μmol/kg single iv): well tolerated
- MTD ([7]; OF-1, mouse, in vivo, single iv bolus injection, read-out: maximum tolerated dose (MTD)): 240 to 320 µmol/kg
- times less toxic than Dox ([7]; after one intravenous injection): at least 6 times
- viability at 48 h, 20 µg/mL [8]: 37%
- viability at 48 h, 20 µg/mL [9]: 81%
- TGD ([1]; 25 μmol/kg ip 2Q1D5): 5 days
- TGI [% (day)] ([1]; 25 μmol/kg ip 2Q1D5, day 22): 32 (22) %
- TGD ([1]; 35 μmol/kg ip 2Q1D5): 13 days
- TGI [% (day)] ([1]; 35 μmol/kg ip 2Q1D5, day 22): 60 (22) %
- TGD ([1]; 50 μmol/kg ip 2Q1D5): 17 days
- TGI [% (day)] ([1]; 50 μmol/kg ip 2Q1D5, day 22): 65% and 65 (22) %
- TGD ([2]; 25 μmol/kg ip 2Q1D5×2W): 9 days
- TGI [% (day)] ([2]; 25 μmol/kg ip 2Q1D5×2W, day 29): 54(29), %
- TGD ([2]; 35 μmol/kg ip 2Q1D5×2W): 9 days
- TGI [% (day)] ([2]; 35 μmol/kg ip 2Q1D5×2W, day 29): 53(29), %
- TGD ([2]; 50 μmol/kg ip 2Q1D5×2W): 22 days
- maximum body weight loss ([2]; 50 μmol/kg ip 2Q1D5×2W, day 9): 13%
- TGI [% (day)] ([2]; 50 μmol/kg ip 2Q1D5×2W, day 29): 73% and 73(29), %
